Data taken from patent publication US20220251141A1, “IMMUNOMODULATORS” (Bristol-Myers Squibb Company, priority 2019, published 2022).
pIC50: −log10 of the molar value. Structures can show the parent of a compound that is named as a salt. Numbered stars: 1 amine (or outer) side, 2 acyl side, 3 side chain; on linkers, the order of the positions; unused ones are H or OH. Bridge positions count the residues as written; N and C are the ends. Square brackets hold non-standard residues; d marks the D form. Side chains are listed from the residue outwards. Peptide text beside a SMILES is read from it. * marks the point of attachment. X6 = CC(C)C[C@H](N[*:1])C(=O)C1C[C@H](O)C[C@H]1C(=O)[*:2]; Trp(1-CH2CO2Me) = COC(=O)Cn1cc(C[C@H](N)C(=O)O)c2ccccc21; Trp(1-CH2COOH) = N[C@@H](Cc1cn(CC(=O)O)c2ccccc12)C(=O)O; NHCH2CH2Ph(3,4-OCH2O) = c1cc2c(cc1CCN*)OCO2; NH(1R-phenylethyl) = C[C@@H](N*)c1ccccc1; NHCH2CHPh2 = c1ccc(C(CN*)c2ccccc2)cc1; Dab(CONH2) = NC(=O)NCC[C@H](N)C(=O)O; Hyp = O=C(O)[C@@H]1C[C@@H](O)CN1; NHcycloheptyl = C1CCCC(N*)CC1; NMeNle = CCCC[C@H](NC)C(=O)O; NMeA = CN[C@@H](C)C(=O)O; X7 = COc1ccc(CN*)c(OC)c1; Dab = NCC[C@H](N)C(=O)O; Dap = NC[C@H](N)C(=O)O; Boc = CC(C)(C)OC(=O)*; CO = O=C([*:1])[*:2]; Tfa = O=C(C(F)(F)F)*

Target: T1, PD-1/PD-L1 (Homo sapiens, UniProt Q9NZQ7)
T1 construct: TVMV protease site linker (C); made in house; host or cells: HEK293T cells
Assay: PD-1/PD-L1 Homogenous Time-Resolved Fluorescence (HTRF) binding assay
Conditions: PD-L1-His 10 nM final, PD-1-Ig 20 nM final; inhibitors pre-incubated with PD-L1-His for 15 m
In short: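 Compounds pre-incubated 15 min with human PD-L1(18-239)-His (10 nM final), then PD-1(25-167)-Ig (20 nM final) added for 15 min, in dPBS with 0.1% BSA and 0.05% Tween-20. Eu-cryptate anti-Ig (1 nM) and APC anti-His (20 nM) added, 30 min equilibration, 665/620 nm ratio read; IC50 reported.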

Structure (SMILES) | pIC50
CCCC[C@H]1C(=O)N(C)[C@@H](CCCC)C(=O)N[C@@H](CC(C)C)C(=O)N[C@H](C(=O)NCC(N)=O)CSCC(=O)N[C@@H](Cc2ccc(O)cc2)C(=O)N(C)[C@@H](C)C(=O)N[C@@H](CC(N)=O)C(=O)N2CCC[C@H]2C(=O)N[C@@H](CNC(=O)NCC(c2ccccc2)c2ccccc2)C(=O)N[C@@H](CC(C)C)C(=O)N2C[C@H](O)C[C@H]2C(=O)N[C@@H](Cc2c[nH]c3ccccc23)C(=O)N[C@@H](CCN)C(=O)N[C@@H](Cc2cn(CC(=O)O)c3ccccc23)C(=O)N1C [Example 1040] ({CH2CO}-Y[NMeA]NP[Dap]([CO-NHCH2CHPh2])L[Hyp]W[Dab][Trp(1-CH2COOH)][NMeNle][NMeNle]LCG-NH2; thioether N-14) | 8.52
CCCC[C@H]1C(=O)N(C)[C@@H](CCCC)C(=O)N[C@@H](CC(C)C)C(=O)N[C@H](C(=O)NCC(N)=O)CSCC(=O)N[C@@H](Cc2ccc(O)cc2)C(=O)N(C)[C@@H](C)C(=O)N[C@@H](CC(N)=O)C(=O)N2CCC[C@H]2C(=O)N[C@@H](CNC(=O)NCC(c2ccccc2)c2ccccc2)C(=O)N[C@@H](CC(C)C)C(=O)N2C[C@H](O)C[C@H]2C(=O)N[C@@H](Cc2c[nH]c3ccccc23)C(=O)N[C@@H](CCNC(=O)NCC(c2ccccc2)c2ccccc2)C(=O)N[C@@H](Cc2cn(CC(=O)O)c3ccccc23)C(=O)N1C [Example 1042] ({CH2CO}-Y[NMeA]NP[Dap]([CO-NHCH2CHPh2])L[Hyp]W[Dab]([CO-NHCH2CHPh2])[Trp(1-CH2COOH)][NMeNle][NMeNle]LCG-NH2; thioether N-14) | 7.94
CCCC[C@H]1C(=O)N(C)[C@@H](CCCC)C(=O)N[C@@H](CC(C)C)C(=O)N[C@H](C(=O)NCC(N)=O)CSCC(=O)N[C@@H](Cc2ccc(O)cc2)C(=O)N(C)[C@@H](C)C(=O)N[C@@H](CC(N)=O)C(=O)N2CCC[C@H]2C(=O)N[C@@H](CNC(=O)NCc2ccc(OC)cc2OC)C(=O)N[C@@H](CC(C)C)C(=O)N2C[C@H](O)C[C@H]2C(=O)N[C@@H](Cc2c[nH]c3ccccc23)C(=O)N[C@@H](CCN)C(=O)N[C@@H](Cc2cn(CC(=O)O)c3ccccc23)C(=O)N1C [Example 1043] ({CH2CO}-Y[NMeA]NP[Dap]([CO-X7])L[Hyp]W[Dab][Trp(1-CH2COOH)][NMeNle][NMeNle]LCG-NH2; thioether N-14) | 8.52
CCCC[C@H]1C(=O)N(C)[C@@H](CCCC)C(=O)N[C@@H](CC(C)C)C(=O)N[C@H](C(=O)NCC(N)=O)CSCC(=O)N[C@@H](Cc2ccc(O)cc2)C(=O)N(C)[C@@H](C)C(=O)N[C@@H](CC(N)=O)C(=O)N2CCC[C@H]2C(=O)N[C@@H](CNC(=O)NCCc2ccc3c(c2)OCO3)C(=O)N[C@@H](CC(C)C)C(=O)N2C[C@H](O)C[C@H]2C(=O)N[C@@H](Cc2c[nH]c3ccccc23)C(=O)N[C@@H](CCNC(=O)NCCc2ccc3c(c2)OCO3)C(=O)N[C@@H](Cc2cn(CC(=O)O)c3ccccc23)C(=O)N1C [Example 1048] ({CH2CO}-Y[NMeA]NP[Dap]([CO-NHCH2CH2Ph(3,4-OCH2O)])L[Hyp]W[Dab]([CO-NHCH2CH2Ph(3,4-OCH2O)])[Trp(1-CH2COOH)][NMeNle][NMeNle]LCG-NH2; thioether N-14) | 8.96

The remaining molecules from weak to strong by pIC50, led by results:

pIC50 | Structure (SMILES)
8.34 | CCCC[C@H]1C(=O)N(C)[C@@H](CCCC)C(=O)N[C@@H](CC(C)C)C(=O)N[C@H](C(=O)NCC(N)=O)CSCC(=O)N[C@@H](Cc2ccc(O)cc2)C(=O)N(C)[C@@H](C)C(=O)N[C@@H](CC(N)=O)C(=O)N2CCC[C@H]2C(=O)N[C@@H](CNC(=O)NC2CCCCCC2)C(=O)N[C@@H](CC(C)C)C(=O)N2C[C@H](O)C[C@H]2C(=O)N[C@@H](Cc2c[nH]c3ccccc23)C(=O)N[C@@H](CCNC(=O)NC2CCCCCC2)C(=O)N[C@@H](Cc2cn(CC(=O)O)c3ccccc23)C(=O)N1C [Example 1045] ({CH2CO}-Y[NMeA]NP[Dap]([CO-NHcycloheptyl])L[Hyp]W[Dab]([CO-NHcycloheptyl])[Trp(1-CH2COOH)][NMeNle][NMeNle]LCG-NH2; thioether N-14)
8.36 | CCCC[C@H]1C(=O)N(C)[C@@H](CCCC)C(=O)N[C@@H](CC(C)C)C(=O)N[C@H](C(=O)NCC(N)=O)CSCC(=O)N[C@@H](Cc2ccc(O)cc2)C(=O)N(C)[C@@H](C)C(=O)N[C@@H](CC(N)=O)C(=O)N2CCC[C@H]2C(=O)N[C@@H](CNC(=O)N[C@H](C)c2ccccc2)C(=O)N[C@@H](CC(C)C)C(=O)N2C[C@H](O)C[C@H]2C(=O)N[C@@H](Cc2c[nH]c3ccccc23)C(=O)N[C@@H](CCN)C(=O)N[C@@H](Cc2cn(CC(=O)O)c3ccccc23)C(=O)N1C [Example 1041] ({CH2CO}-Y[NMeA]NP[Dap]([CO-NH(1R-phenylethyl)])L[Hyp]W[Dab][Trp(1-CH2COOH)][NMeNle][NMeNle]LCG-NH2; thioether N-14)
8.47 | CCCC[C@H]1C(=O)N(C)[C@@H](CCCC)C(=O)N[C@@H](CC(C)C)C(=O)N[C@H](C(=O)NCC(N)=O)CSCC(=O)N[C@@H](Cc2ccc(O)cc2)C(=O)N(C)[C@@H](C)C(=O)N[C@@H](CC(N)=O)C(=O)N2CCC[C@H]2C(=O)N[C@@H](CNC(=O)OC(C)(C)C)C(=O)N[C@@H](CC(C)C)C(=O)C2C[C@H](O)C[C@H]2C(=O)N[C@@H](Cc2c[nH]c3ccccc23)C(=O)N[C@@H](CCNC(N)=O)C(=O)N[C@@H](Cc2cn(CC(=O)OC)c3ccccc23)C(=O)N1C (stereo partly shown) [Example 2001] ({CH2CO}-Y[NMeA]NP[Dap](Boc)[X6]W[Dab(CONH2)][Trp(1-CH2CO2Me)][NMeNle][NMeNle]LCG-NH2; thioether N-13)
8.59 | CCCC[C@H]1C(=O)N(C)[C@@H](CCCC)C(=O)N[C@@H](CC(C)C)C(=O)N[C@H](C(=O)NCC(N)=O)CSCC(=O)N[C@@H](Cc2ccc(O)cc2)C(=O)N(C)[C@@H](C)C(=O)N[C@@H](CC(N)=O)C(=O)N2CCC[C@H]2C(=O)N[C@@H](CNC(=O)NCc2ccc(OC)cc2OC)C(=O)N[C@@H](CC(C)C)C(=O)N2C[C@H](O)C[C@H]2C(=O)N[C@@H](Cc2c[nH]c3ccccc23)C(=O)N[C@@H](CCNC(=O)NCc2ccc(OC)cc2OC)C(=O)N[C@@H](Cc2cn(CC(=O)O)c3ccccc23)C(=O)N1C [Example 1044] ({CH2CO}-Y[NMeA]NP[Dap]([CO-X7])L[Hyp]W[Dab]([CO-X7])[Trp(1-CH2COOH)][NMeNle][NMeNle]LCG-NH2; thioether N-14)
8.59 | CCCC[C@H]1C(=O)N(C)[C@@H](CCCC)C(=O)N[C@@H](CC(C)C)C(=O)N[C@H](C(=O)NCC(N)=O)CSCC(=O)N[C@@H](Cc2ccc(O)cc2)C(=O)N(C)[C@@H](C)C(=O)N[C@@H](CC(N)=O)C(=O)N2CCC[C@H]2C(=O)N[C@@H](CNC(=O)C(F)(F)F)C(=O)N[C@@H](CC(C)C)C(=O)N2C[C@H](O)C[C@H]2C(=O)N[C@@H](Cc2c[nH]c3ccccc23)C(=O)N[C@@H](CCN)C(=O)N[C@@H](Cc2cn(CC(=O)O)c3ccccc23)C(=O)N1C [Example 1046] ({CH2CO}-Y[NMeA]NP[Dap](Tfa)L[Hyp]W[Dab][Trp(1-CH2COOH)][NMeNle][NMeNle]LCG-NH2; thioether N-14)
8.92 | CCCC[C@H]1C(=O)N(C)[C@@H](CCCC)C(=O)N[C@@H](CC(C)C)C(=O)N[C@H](C(=O)NCC(N)=O)CSCC(=O)N[C@@H](Cc2ccc(O)cc2)C(=O)N(C)[C@@H](C)C(=O)N[C@@H](CC(N)=O)C(=O)N2CCC[C@H]2C(=O)N[C@@H](CNC(=O)OC(C)(C)C)C(=O)N[C@@H](CC(C)C)C(=O)C2C[C@H](O)C[C@H]2C(=O)N[C@@H](Cc2c[nH]c3ccccc23)C(=O)N[C@@H](CCNC(=O)OC(C)(C)C)C(=O)N[C@@H](Cc2cn(CC(=O)OC)c3ccccc23)C(=O)N1C (stereo partly shown) [Example 2002] ({CH2CO}-Y[NMeA]NP[Dap](Boc)[X6]W[Dab](Boc)[Trp(1-CH2CO2Me)][NMeNle][NMeNle]LCG-NH2; thioether N-13)
